Read-outs that look alike come from different tables or passages of the source. Positions of bridges follow the written chain, without caps; N, C: chain ends. No end group written: not given here.
Legend:
[1] = system: total ICaL (ICav1.2+ICav1.3) in SAN myocytes from wild-type mice; assay: ICaL, patch clamp, SAN myocytes from wild-type mice; type: cell-based, mouse; conditions: for L-type Ca2+ current density: Cas 1 µM alone or + Nife 3 µM, n=8
Protocol: (§1) Hearts from Wild-Type and Cav1.3^−/− mice were removed under general anesthesia consisting of 0.01 mg/g xylazine (2% Rompun; Bayer AG) and 0.1 mg/g ketamine (Imalgène;Merial) and immersed in a pre-warmed (36 °C) Tyrode solution containing (mM): 140 NaCl, 5.4 KCl, 1 MgCl2, 1.8 CaCl2, 5.5 D-glucose, and 5 Hepes (adjusted to pH 7.4 with NaOH). […] SAN tissue was excised and transferred into a low-Ca^2+ solution containing (mM): 140 NaCl, 5.4 KCl, 0.5 MgCl2, 0.2 CaCl2, 1.2 KH2PO4, 50 taurine, 5.5 D-glucose, 1 mg/mL BSA, and 5 Hepes–NaOH (adjusted to pH 6.9 with NaOH) for 5 min. Then, enzymatic digestion was carried out for 20-25 min at 36 °C in the low-Ca^2+ solution containing LiberaseTH Research Grade (0.15 mg/mL; Roche, Mannheim, Germany) and elastase (0.5 mg/mL; Worthington, Lakewood, NJ, USA). Digestion was stopped by washing the SAN in a “Kraftbrühe” (KB) medium containing (mM) 100 K-glutamate, 10 K-aspartate, 25 KCl, 10 KH2PO4, 2 MgSO4, 20 taurine, 5 creatine, 0.5 EGTA, 20 D-glucose, 5 Hepes, and 1 mg/mL BSA (adjusted to pH 7.2 with KOH). Single SAN cells were then dissociated from the SAN tissue by manual agitation using a flame-forged Pasteur’s pipette. To recover the automaticity of the SAN cells, Ca^2+ was gradually reintroduced in the cell’s storage solution to a final concentration of 1.8 mM. SAN cells were then left to rest for 1 h before recordings.
(§2) For patch-clamp recordings of SAN myocytes, cells were harvested in custom-made chambers with glass bottoms for cell attachment. Cells were then super-fused with Tyrode’s solution warmed at 36 °C before recording. Action potentials and ionic currents were recorded using an Axon multi-clamp patch-clamp 700B amplifier. Voltage-gated L-type Ca^2+ currents (ICaL) were recorded using standard whole cell patch-clamp configuration. For recording ICaL, we used an extracellular recording solution contained (mM): 135 tetraethylammonium chloride (TEA-Cl), 10 4-aminopyridine (4-AP), 1 MgCl2, 0.03 tetrodotoxin (TTX), 1 g/L Glucose, 2 CaCl2, 10 Hepes, (adjusted to pH = 7.2 with TEAOH). […] Pacemaker activity was recorded by the perforated patch-clamp technique using escin (40 µg/ml). For recording cell automaticity glass pipettes were filled with the intracellular solution contained (mM): 80 K-Aspartate, 50 KCl, 1 MgCl2, 5 HEPES, 2 CaCl2, 5 EGTA, 3 ATP-Na+ salt; pH was adjusted to 7.2 with KOH. Escin was dissolved in sterile H2O and added to the intracellular solution right before each experiment.
(§3) In all experiments of cellular electrophysiology, we employed synthetized analog of Cas, commercially available at Latoxan (ID: L8109). The native peptide was purified from the venom of Dendroaspis polylepis purchased from Latoxan, as previoulsly described. The pure peptide was obtained after gel filtration, cation exchange and C18 reversed phase chromatography. Its measured molecular mass (7036.26 Da average) was in accordance with the mass calculated from sequence data (7036.22 Da).

Cav1.2 = target: T1, Cav1.2 (Homo sapiens, UniProt Q13936); assay: cell-based; type: cell-based; conditions: for L-type Ca2+ current density: mean ± SEM, n=11
T1 construct: expressed in transfected cells; host or cells: HEK-293T
T1 sequence (Q13936 whole entry): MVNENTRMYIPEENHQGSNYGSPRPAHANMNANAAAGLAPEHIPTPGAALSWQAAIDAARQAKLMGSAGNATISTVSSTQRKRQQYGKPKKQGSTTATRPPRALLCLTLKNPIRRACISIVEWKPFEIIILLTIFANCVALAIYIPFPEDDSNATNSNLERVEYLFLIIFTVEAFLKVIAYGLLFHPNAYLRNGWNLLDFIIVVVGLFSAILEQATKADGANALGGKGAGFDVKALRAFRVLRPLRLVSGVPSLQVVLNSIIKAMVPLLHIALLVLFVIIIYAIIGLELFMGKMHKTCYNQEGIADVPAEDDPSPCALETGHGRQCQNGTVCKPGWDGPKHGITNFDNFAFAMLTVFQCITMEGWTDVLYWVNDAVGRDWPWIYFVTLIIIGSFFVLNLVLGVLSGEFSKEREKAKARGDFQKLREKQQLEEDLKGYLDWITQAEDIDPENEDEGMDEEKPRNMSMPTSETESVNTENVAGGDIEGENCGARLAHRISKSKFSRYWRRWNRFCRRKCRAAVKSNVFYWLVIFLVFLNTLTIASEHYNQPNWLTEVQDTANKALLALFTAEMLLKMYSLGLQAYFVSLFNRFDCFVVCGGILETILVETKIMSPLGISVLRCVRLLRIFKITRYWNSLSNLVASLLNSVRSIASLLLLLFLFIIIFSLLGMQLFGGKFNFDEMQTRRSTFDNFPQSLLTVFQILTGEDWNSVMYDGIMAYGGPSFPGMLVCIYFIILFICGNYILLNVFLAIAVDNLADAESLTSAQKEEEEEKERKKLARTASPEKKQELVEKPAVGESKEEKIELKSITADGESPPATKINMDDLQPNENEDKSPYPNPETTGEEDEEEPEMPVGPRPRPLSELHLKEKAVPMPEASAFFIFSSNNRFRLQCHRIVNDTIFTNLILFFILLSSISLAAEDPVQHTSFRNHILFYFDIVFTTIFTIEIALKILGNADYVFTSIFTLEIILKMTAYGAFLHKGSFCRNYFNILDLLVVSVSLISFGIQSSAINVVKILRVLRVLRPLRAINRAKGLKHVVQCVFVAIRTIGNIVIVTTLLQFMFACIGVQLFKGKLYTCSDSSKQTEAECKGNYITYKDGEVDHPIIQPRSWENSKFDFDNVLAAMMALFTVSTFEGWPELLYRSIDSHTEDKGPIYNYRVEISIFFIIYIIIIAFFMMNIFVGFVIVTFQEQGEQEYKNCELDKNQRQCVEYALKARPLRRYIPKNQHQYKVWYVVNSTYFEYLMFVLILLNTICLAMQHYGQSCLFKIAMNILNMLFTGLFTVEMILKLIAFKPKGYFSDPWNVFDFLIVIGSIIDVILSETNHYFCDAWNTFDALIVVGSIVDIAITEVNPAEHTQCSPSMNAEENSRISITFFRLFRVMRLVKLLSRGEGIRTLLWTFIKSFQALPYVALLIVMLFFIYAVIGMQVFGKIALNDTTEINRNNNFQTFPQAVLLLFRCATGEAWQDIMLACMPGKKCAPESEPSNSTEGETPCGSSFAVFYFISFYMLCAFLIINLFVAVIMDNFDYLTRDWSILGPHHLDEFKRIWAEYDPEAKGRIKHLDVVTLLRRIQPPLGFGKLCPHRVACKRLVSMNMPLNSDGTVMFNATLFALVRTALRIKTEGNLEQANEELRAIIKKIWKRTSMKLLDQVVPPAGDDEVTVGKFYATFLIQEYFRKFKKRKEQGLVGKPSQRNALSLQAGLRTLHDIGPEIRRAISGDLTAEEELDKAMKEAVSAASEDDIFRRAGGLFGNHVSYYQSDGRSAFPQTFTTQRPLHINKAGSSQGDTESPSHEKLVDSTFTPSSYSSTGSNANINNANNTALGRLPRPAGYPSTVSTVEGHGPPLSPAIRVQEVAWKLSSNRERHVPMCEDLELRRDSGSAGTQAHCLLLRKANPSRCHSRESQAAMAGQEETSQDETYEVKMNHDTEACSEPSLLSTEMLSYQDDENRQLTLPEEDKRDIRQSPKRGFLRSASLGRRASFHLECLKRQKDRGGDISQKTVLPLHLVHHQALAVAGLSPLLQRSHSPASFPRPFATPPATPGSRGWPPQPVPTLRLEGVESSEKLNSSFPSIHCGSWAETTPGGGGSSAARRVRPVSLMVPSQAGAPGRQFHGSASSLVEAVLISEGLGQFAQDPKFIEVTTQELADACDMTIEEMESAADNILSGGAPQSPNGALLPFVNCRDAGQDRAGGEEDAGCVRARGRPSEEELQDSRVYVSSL
T1 sequence (Q08289 whole entry partner): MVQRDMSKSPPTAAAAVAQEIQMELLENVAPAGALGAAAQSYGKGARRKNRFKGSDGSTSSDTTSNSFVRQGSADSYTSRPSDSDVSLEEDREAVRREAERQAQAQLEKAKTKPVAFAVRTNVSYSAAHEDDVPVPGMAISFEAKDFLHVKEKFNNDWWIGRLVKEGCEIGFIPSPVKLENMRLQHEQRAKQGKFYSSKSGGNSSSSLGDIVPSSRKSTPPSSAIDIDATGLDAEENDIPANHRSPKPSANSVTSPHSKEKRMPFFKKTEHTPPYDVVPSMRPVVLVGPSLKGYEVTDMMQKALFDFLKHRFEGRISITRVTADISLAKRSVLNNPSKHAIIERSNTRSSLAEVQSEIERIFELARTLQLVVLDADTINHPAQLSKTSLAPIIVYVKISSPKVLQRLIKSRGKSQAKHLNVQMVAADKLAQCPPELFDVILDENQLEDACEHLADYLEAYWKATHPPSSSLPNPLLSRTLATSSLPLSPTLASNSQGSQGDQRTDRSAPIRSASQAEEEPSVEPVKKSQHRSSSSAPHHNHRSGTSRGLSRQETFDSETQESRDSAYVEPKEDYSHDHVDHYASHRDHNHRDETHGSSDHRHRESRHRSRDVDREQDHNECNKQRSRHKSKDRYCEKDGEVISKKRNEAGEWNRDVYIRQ
T1 sequence (P54289 25-956 partner limits assumed): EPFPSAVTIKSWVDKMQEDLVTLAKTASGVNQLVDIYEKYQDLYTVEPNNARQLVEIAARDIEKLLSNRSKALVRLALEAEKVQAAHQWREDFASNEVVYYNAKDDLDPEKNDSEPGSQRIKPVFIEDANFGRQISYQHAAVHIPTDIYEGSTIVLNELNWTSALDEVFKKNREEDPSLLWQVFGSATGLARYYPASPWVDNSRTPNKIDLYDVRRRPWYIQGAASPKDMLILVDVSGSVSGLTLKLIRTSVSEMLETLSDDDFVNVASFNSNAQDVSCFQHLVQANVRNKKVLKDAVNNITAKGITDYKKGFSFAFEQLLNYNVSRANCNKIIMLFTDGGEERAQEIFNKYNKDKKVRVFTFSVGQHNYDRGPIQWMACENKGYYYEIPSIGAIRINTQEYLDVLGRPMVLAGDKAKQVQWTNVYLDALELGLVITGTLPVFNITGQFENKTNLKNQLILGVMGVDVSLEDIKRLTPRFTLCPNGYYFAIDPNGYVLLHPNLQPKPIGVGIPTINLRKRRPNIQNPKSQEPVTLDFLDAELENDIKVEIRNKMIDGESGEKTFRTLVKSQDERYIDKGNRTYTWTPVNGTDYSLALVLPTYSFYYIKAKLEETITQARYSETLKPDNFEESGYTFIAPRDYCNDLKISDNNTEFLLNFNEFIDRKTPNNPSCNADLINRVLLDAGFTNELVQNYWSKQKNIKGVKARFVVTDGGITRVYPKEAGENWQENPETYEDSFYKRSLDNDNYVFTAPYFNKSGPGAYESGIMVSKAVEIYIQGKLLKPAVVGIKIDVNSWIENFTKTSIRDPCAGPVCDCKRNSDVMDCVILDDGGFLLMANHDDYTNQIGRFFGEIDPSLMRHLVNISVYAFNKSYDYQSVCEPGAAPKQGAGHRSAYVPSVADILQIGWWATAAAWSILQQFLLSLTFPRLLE
T1 sequence (P54289 957-1103 partner limits assumed): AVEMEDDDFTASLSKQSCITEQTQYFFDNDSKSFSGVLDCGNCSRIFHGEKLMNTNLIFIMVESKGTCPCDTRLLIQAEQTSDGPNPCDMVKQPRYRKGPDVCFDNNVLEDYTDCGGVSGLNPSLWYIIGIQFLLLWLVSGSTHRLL
Protocol: HEK-293T (RRID:CVCL_2737) were obtained from the European Collection of Authenticated Cell Cultures (ECACC 96121229). The identity of HEK-293T has been confirmed by STR profiling and the cells have been eradicated from mycoplasma at ECACC. We routinely tested the cells for the absence of the mycoplasma contamination. Cells were cultivated at 37 °C in DMEM supplemented with GlutaMax, 10% fetal bovine serum and 1% penicillin/streptomycin (Invitrogen, Fisher Scientific, France). Transfections were performed using jet-PEI (Ozyme, France) with a DNA mix containing either the plasmids that code for Cav1.2-GFP, β2a and α2δ (0.8 µg of each) or either the plasmids that code for Cav1.3 (with and without exon 42a), or Cav2.1, or either Cav2.2 combined with β2a and α2δ (0.8 µg of each supplemented with 0.025 µg of a plasmid coding for GFP). For Cav3.1 expression β2a and α2δ subunits were omitted. Plasmids coding for β2a, α2δ and Cav1.3 were created as described previously. Plasmid coding for Cav1.2-GFP was obtained from Dr. Catalucci[60]. After transfection cells were placed at 30 °C for 2–3 days and dissociated with Versene (Invitrogen, Fisher Scientific, France) and plated at a density of ~35 × 10^3 cells per 35 mm Petri dish for electrophysiological recordings, which were performed the following day.
Macroscopic currents in HEK-293T cells were recorded at room temperature using an Axopatch 200B or Multiclamp 700B patchclamp amplifier (Molecular Devices, Sunnyvale CA). […] The extracellular solution contained (in mM): 135 NaCl, 20 TEACl, 5 BaCl2, 1 MgCl2, and 10 HEPES (pH adjusted to 7.25 with KOH, ~330 mOsm).
as §3, with “chromatography.” for “chromatography. Its measured molecular mass (7036.26 Da average) was in accordance with the mass calculated from sequence data (7036.22 Da).”

[2] = system: ICav1.2 in SAN myocytes from Cav1.3^−/− mice; assay: ICaL, patch clamp, SAN myocytes from Cav1.3-/- mice; type: cell-based, mouse; conditions: for degree of inhibition of ICav1.2 / percentage of ICaL block: step 0 mV, mean ± SEM; for degree of inhibition of ICav1.2: n=6/N=2; for percentage of ICaL block: n=7/N=2; for L-type Ca2+ current density: Cas 1 µM alone or + Nife 3 µM, n=8
Protocol: as §1, §2, §3

[3] = HEK-293T, read-out: inhibition of ICav1.2

“RICYIHKASLPRATKTCVENTCYKMFIRTQREYISERGCGCPTAMWPYQTECCKGDRCNK (disulfide 3-22, 17-39, 41-52, 53-58 (inferred)) [Cas, calciseptine]” was tested, and the “L-type Ca2+ current density” value ([1]; 0 mV, Ctrl -8.45± 1.02) was -3.87± 0.71 pA/pF, the “L-type Ca2+ current density” value ([1]; +20 mV, Ctrl -5.09± 0.81) was -1.53± 0.56 pA/pF and the “L-type Ca2+ current density” value ([1]; -10 mV, Ctrl -8.20± 1.10) was -4.24± 0.77 pA/pF. For the same sequence, the “L-type Ca2+ current density” value ([1]; -20 mV, Ctrl -5.61± 0.91) was -3.37± 0.54 pA/pF, the “L-type Ca2+ current density” value ([1]; -25 mV, Ctrl -3.96± 0.71) was -2.46± 0.48 pA/pF and the “L-type Ca2+ current density” value ([1]; -30 mV, Ctrl -2.44± 0.47) was -1.49± 0.38 pA/pF. The “L-type Ca2+ current density” value ([1]; -35 mV, Ctrl -1.18± 0.29) was -0.90± 0.24 pA/pF, the “reduction of total ICaL” value ([1]; Wild-Type SAN myocytes, voltage clamp) was “around 45%” and the “effect on outward-going ICav1.2 at +150 mV” value (Cav1.2; Cas 300 nM, n=6/N=3, holding -60 mV) was “almost no effect”. For the same sequence, the “L-type Ca2+ current density” value (Cav1.2; Cas 300 nM, 0 mV, Ctrl -9.25± 2,32) was -3.32± 0.87 pA/pF, the “L-type Ca2+ current density” value (Cav1.2; Cas 300 nM, +10 mV, Ctrl -9.90± 1,94) was -3.92± 0.94 pA/pF and the “L-type Ca2+ current density” value (Cav1.2; Cas 300 nM, +20 mV, Ctrl -8.05± 1.41) was -3.08± 0.77 pA/pF. For the same sequence, the “L-type Ca2+ current density” value (Cav1.2; Cas 300 nM, +30 mV, Ctrl -4.66± 0.82) was -1.53± 0.51 pA/pF, the “L-type Ca2+ current density” value (Cav1.2; Cas 300 nM, -10 mV, Ctrl -5.72± 1.83) was -1.76± 0.46 pA/pF and the “L-type Ca2+ current density” value (Cav1.2; Cas 300 nM, -20 mV, Ctrl -1.41± 0.28) was -0.70± 0.17 pA/pF. The inhibition at 0.1 µM (Cav1.2; [3]) was 37%, the inhibition at 0.3 µM (Cav1.2; [3]) was 70% and the inhibition at 1 µM (Cav1.2; [3]) was 80%. The inhibition at 0.3 µM (Cav1.2; HEK-293T, read-out: inhibition of ICav1.2 (I-V relationship)) was roughly 60%, the V0.5 for activation (Cav1.2; during Cas application, control −3 ± 2 mV, n = 8, Wilcoxon p = 0.0078) was 3 ± 2 mV and the “degree of inhibition of ICav1.2” value ([2]; Cas 300 nM, 0.2 Hz, holding −60 mV) was 62 ± 6%. For the same sequence, the “degree of inhibition of ICav1.2” value ([2]; Cas 300 nM, 1 Hz, holding −60 mV) was 63 ± 6%, the “degree of inhibition of ICav1.2” value ([2]; Cas 300 nM, 5 Hz, holding −60 mV) was 58 ± 8% and the “voltage- or use-dependence of ICav1.2 inhibition” value ([2]; Cas 300 nM, holding −40 / −60 mV, 0.2, 1, 5 Hz) was “not voltage- or use-dependent”. The “percentage of ICaL block” value ([2]; Cas 300 nM, holding −40 mV) was 68 ± 3%, the “percentage of ICaL block” value ([2]; Cas 300 nM, holding −60 mV) was 67 ± 4% and the “L-type Ca2+ current density” value ([2]; 0 mV, Ctrl -4.14± 0.56) was -0.45± 0.14 pA/pF. The “L-type Ca2+ current density” value ([2]; +10 mV, Ctrl -4.69± 0.57) was -0.17± 0.14 pA/pF, the “L-type Ca2+ current density” value ([2]; +20 mV, Ctrl -3.93± 0.56) was -0.13± 0.21 pA/pF and the “L-type Ca2+ current density” value ([2]; +40 mV, Ctrl -1.15± 0.37) was 0.37± 0.29 pA/pF. The “L-type Ca2+ current density” value ([2]; -10 mV, Ctrl -2.49± 0.39) was -0.17± 0.07 pA/pF, the “L-type Ca2+ current density” value ([2]; -20 mV, Ctrl -1.16± 0.20) was -0.08± 0.03 pA/pF and the “L-type Ca2+ current density” value ([2]; -25 mV, Ctrl -0.97± 0.21) was -0.25± 0.13 pA/pF. The “block of ICaL” value ([2]; Cas 1 µM, holding −55 mV, n=8/N=2) was “totally blocked ICaL” and the “residual ICaL after Cas” value ([2]; Cav1.3^−/− SAN myocytes after Cas perfusion) was “No residual ICaL was recorded”.

Source: PMC10762068, “Selective blockade of Cav1.2 (α1C) versus Cav1.3 (α1D) L-type calcium channels by the black mamba toxin calciseptine” (Nature Communications, 2024)
